The values that follow come from patent US20230082611A1, “COMPOSITIONS AND METHODS FOR THE TREATMENT OF RESPIRATORY SYNCYTIAL VIRUS” (Cidara Therapeutics, Inc., priority 2019, published 2023).

Read-outs that look alike come from different tables or passages of the source. Some results are limits rather than exact numbers.

In general, EC50 refers to the concentration needed to bring the measured effect to its halfway point.

The subject of one series is HEp-2 cells. Nature of the series: Inherent cytotoxicity run in parallel with the CPE assay (CellTiter-Glo). To be noted: 4 days post treatment, DMSO, value in %. It is filed as cell-based. As for the experimental part: (§1) In parallel with the CPE assay, the inherent cytotoxicity of several test articles was also determined. Briefly, ten four-fold serial dilutions of each TA starting at 10 μM were prepared in triplicate for inoculation with HEp-2 cells in 96-well culture plates. The cell viability was determined four days post treatment using CellTiter-Glo kit.

A further series concerns RSV Long strain. The experiment in a line: RSV microneutralization assay, RSV Long strain. It is filed as cell-based. The note with it: read-out: RSV Long EC50. As to the method: (§2) Duplicate 10-fold serial dilutions of compound in DMEM with 2% HI-FBS, 1× P/S, 2 mM L-Gln were prepared in 96-well tissue culture plates at 60 μL/well. The RSV Long strain (RetroVirox, San Diego), RSV A2 strain (Virapur, San Diego), RSV B1 strain (RetroVirox, San Diego), or RSV strain CH18537 (RetroVirox, San Diego), were diluted in DMEM with 2% HI-FBS, 1× P/S, 2 mM L-Gln and 60 μL/well added to 60 μL compound for a multiplicity of infection (MOI) of 0.002 (Long, A2), 0.003 (B1), or 0.004 (CH18537). Virus only (no drug) and cells only (no virus, no drug) controls were included on each plate. The compound-virus mix was incubated for 1 h at 37° C. and 5% CO2. After 1 h, medium was removed from HEp-2 cells by aspiration and wells washed once with 100 μL/well 1×PBS pH 7.4 (Fisher cat #MT21040CM). The compound-virus mix (100 μL/well) was added to the cells and incubated for 1 h at 37° C. and 5% CO2 prior to addition of 100 μL/well of DMEM with 2% HI-FBS, 1× P/S, 2 mM L-Gln (200 μL final vol) and incubation at 37° C. and 5% CO2. On day 6 post infection, supernatant was aspirated and cells fixed with 100 μL/well ice-cold 80% acetone in 1×PBS for 20 min at 4° C. The acetone was aspirated and plates air-dried for 20 min at room temperature. The plates were washed 3× with 200 μL/well 1×PBS, 0.05% Tween-20 (PBST) and blocked with 200 μL/well 5% non-fat dry milk (Fisher cat #50-195-952) in PBST for 1 h with shaking (500 rpm) on an orbital plate shaker. The blocking solution was discarded and cells incubated with 100 μL/well mouse anti-F protein antibody (MilliporeSigma cat #MAB8599) diluted 1:2,000 in diluent (blocking solution diluted 1:1 in 1×PBS pH 7.4) for 2 h with shaking. Plates were washed 5× with 300 μL/well PBST and incubated with 100 μL/well HRP-conjugated goat anti-mouse IgG antibody (SouthernBiotech cat #1030-05) diluted 1:1,000 in diluent for 1 h with shaking. Plates were washed 5× with 300 μL/well PBST and incubated with 100 μL/well TMB substrate (Fisher cat #BDB555214) for ˜5 min. The reaction was stopped with 100 μL/well 1N H2SO4. Absorbance was read at 450 nm with an EnSpire multimode plate reader (PerkinElmer). The mean A450 for the cells only control was subtracted from all A450 values, and the percent virus neutralisation calculated for each compound concentration, relative to the virus only control.

For series [1], the system named is RSV (Respiratory Syncytial Virus strain A2). Nature of the series: RSV cytopathic effects (CPE) assay. Format: cell-based. To be noted: human respiratory syncytial virus. As to the method: The activity of anti-RSV compounds and conjugates was determined using an in vitro cell-based assay following a standard protocol in the field. Briefly, ten four-fold serial dilutions of each test article (TA) starting at 10 μM were prepared in duplicate and incubated with RSV (Respiratory Syncytial Virus strain A2) at a multiplicity of infection (MOI) of 0.01, for one hour. The RSV-TA mix was then added to HEp-2 cells seeded in 96-well plates and incubated for one hour.
(In general: Cytopathic effects are the visible damage that an infection or toxin causes in cultured cells.)

Series [2] is described as follows: Inherent cytotoxicity run in parallel with the CPE assay (CellTiter-Glo). The note with it: human, HEp-2 cells, 4 days post treatment. It is filed as cell-based. As to the method:
as §1

Another series has as its system RSV A2 strain. The experiment in a line: RSV microneutralization assay, RSV A2 strain. The note with it: MOI 0.002, HEp-2 cells, day 6. It is filed as cell-based. As for the experimental part: as §2, with “HEp-2 cells (ATCC #CCL-23) were seeded at 5E4/well/200 μL in DMEM (Fisher cat #11965118) supplemented with 10% heat-inactivated (HI) fetal bovine serum (HI-FBS; Fisher cat #10-082-147), 1× penicillin-streptomycin (P/S, 100 μg/mL; Fisher cat #MT30002C), and 1× L-glutamine (L-Gln, 2 mM; Fisher cat #25030-164) in 96-well tissue culture treated plates (Fisher cat #08-772-17) and incubated overnight at 37° C. and 5% CO2. Duplicate” for “Duplicate”

The subject of a further series is RSV B1 strain. Nature of the series: RSV microneutralization assay, RSV B1 strain. It is filed as cell-based. To be noted: human respiratory syncytial virus; MOI 0.003, HEp-2 cells, day 6. As to the method:
HEp-2 cells (ATCC #CCL-23) were seeded at 5E4/well/200 μL in DMEM (Fisher cat #11965118) supplemented with 10% heat-inactivated (HI) fetal bovine serum (HI-FBS; Fisher cat #10-082-147), 1× penicillin-streptomycin (P/S, 100 μg/mL; Fisher cat #MT30002C), and 1× L-glutamine (L-Gln, 2 mM; Fisher cat #25030-164) in 96-well tissue culture treated plates (Fisher cat #08-772-17) and incubated overnight at 37° C. and 5% CO2. Duplicate 10-fold serial dilutions of compound in DMEM with 2% HI-FBS, 1× P/S, 2 mM L-Gln were prepared in 96-well tissue culture plates at 60 μL/well. The RSV Long strain (RetroVirox, San Diego), RSV A2 strain (Virapur, San Diego), RSV B1 strain (RetroVirox, San Diego), or RSV strain CH18537 (RetroVirox, San Diego), were diluted in DMEM with 2% HI-FBS, 1× P/S, 2 mM L-Gln and 60 μL/well added to 60 μL compound for a multiplicity of infection (MOI) of 0.002 (Long, A2), 0.003 (B1), or 0.004 (CH18537). Virus only (no drug) and cells only (no virus, no drug) controls were included on each plate. The compound-virus mix was incubated for 1 h at 37° C. and 5% CO2. […] Absorbance was read at 450 nm with an EnSpire multimode plate reader (PerkinElmer). The mean A450 for the cells only control was subtracted from all A450 values, and the percent virus neutralisation calculated for each compound concentration, relative to the virus only control.

For a further series, the system named is RSV. The note with it: prophylactic use; cited from earlier work.
Where [3] appears, read: human respiratory syncytial virus, HEp-2, […].
Where [4] appears, read: human respiratory syncytial virus, MOI 0.002, HEp-2 cells, day 6.
Setting [5] is: 96 h, RSV A2, MOI 0.01, HEp-2 cells, day 4, crystal violet, average of duplicate wells, read-out: EC50.
[6] abbreviates: human respiratory syncytial virus.

With `C[S+](C)[O-]` [DMSO], the CC50 with HEp-2 cells turned out to be 1.17%.

Consider `C#CCOCCOCCOCCOCCNCC1CN(c2nc3cc([C@@H]4CCCCN4C(=O)c4cc(Cl)ccc4NS(C)(=O)=O)nn3cc2C)C1` [Int-01], for which the EC50 in the series with RSV Long strain (setting [3]) was found to be 98 nM. For `C#CCOCCOCCOCCOCCO[C@H]1CN(c2nc3cc([C@@H]4CCCCN4C(=O)c4cc(Cl)ccc4NS(C)(=O)=O)nn3cc2C)C[C@H]1N` [Int-02], the EC50 in the series with RSV Long strain (setting [4]) worked out at 110 nM. As to `C#CCOCCOCCOCCOCCN[C@@H]1CN(c2nc3cc([C@@H]4CCCCN4C(=O)c4cc(Cl)ccc4NS(C)(=O)=O)nn3cc2C)C[C@@H]1O` [Int-03], the EC50 in the series on RSV Long strain (setting [4]) is above 1000 nM. Take `C#CCOCCOCCOCCOCCO[C@@H]1CN(c2nc3cc([C@@H]4CCCCN4C(=O)c4cc(Cl)ccc4NS(C)(=O)=O)nn3cc2C)C[C@H]1N` [Int-04]: in the series on RSV Long strain (setting [4]), the EC50 is above 1000 nM. Take `C#CCOCCOCCOCCOCCOCCOCCOCCCCN[C@H]1CCN(c2nc3cc([C@@H]4CCCCN4C(=O)c4cc(Cl)ccc4NS(C)(=O)=O)nn3cc2C)C1` [Int-05]: in the series with RSV Long strain (setting [4]), the concentration for a half-maximal effect (EC50) is above 1000 nM. Consider `C#CCOCCOCCNC(=N)N[C@H]1CCN(c2nc3cc([C@@H]4CCCCN4C(=O)c4cc(Cl)ccc4NS(C)(=O)=O)nn3cc2C)C1` [Int-6], for which the EC50 in series [1] (setting [5]) is 2200 nM. With `C#CCOCCOCCOCCOCCN[C@H]1CCN(c2nc3cc(C4CCCCN4C(=O)c4cc(Cl)ccc4NS(C)(=O)=O)nn3cc2C)C1` (stereo partly drawn) [Int-7], the values for the EC50 (in the series with RSV Long strain (setting [4]); in series [1] (setting [5])) were 18 nM and 0.353 nM, respectively. In series [2], the CC50 at 4 days was found to be 10400 nM. Consider `C#CCOCCOCCOCCOCCOCCOCCOCCOCCN[C@H]1CCN(c2nc3cc([C@@H]4CCCCN4C(=O)c4cc(Cl)ccc4NS(C)(=O)=O)nn3cc2C)C1` [Int-8], for which the EC50 amounted to 43 nM with RSV Long strain (setting [3]) and 2.29 nM in series [1] (HEp-2, 96 h). Turning to `C#CCOCCOCCOCCOCCC(=O)N[C@H]1CCN(c2nc3cc([C@@H]4CCCCN4C(=O)c4cc(Cl)ccc4NS(C)(=O)=O)nn3cc2C)C1` [Int-9], the EC50 in the series on RSV Long strain (setting [4]) is 1500 nM; in series [1] (setting [5]), 272 nM. The compound further registered a CC50 at 4 days in series [2] of 49700 nM.

With `C#CCOCCOCCOCCOCCN1CCN(CCCN[C@H]2CCN(c3nc4cc([C@H]5CCCCN5C(=O)c5cc(Cl)ccc5NS(C)(=O)=O)nn4cc3C)C2)CC1` [Int-10], in the series on RSV Long strain (setting [3]), the EC50 is 97 nM.

For the compound `C#CCOCCOCCOCCOCCC(=O)N[C@@H](CS(=O)(=O)O)C(=O)N1CCN(CCCN[C@H]2CCN(c3nc4cc([C@@H]5CCCCN5C(=O)c5ccc(Cl)cc5NS(C)(=O)=O)nn4cc3C)C2)CC1` [Int-23], the EC50 with RSV Long strain (setting [4]) is above 1000 nM. On the same count and under the same terms, for `C#CCOCCOCCOCCOCCN1CCN(CCCCN[C@H]2CCN(c3nc4cc([C@@H]5CCCCN5C(=O)c5cc(Cl)ccc5NS(C)(=O)=O)nn4cc3C)C2)CC1` [Int-24] the value was above 1000 nM; for `C#CCOCCOCCOCCOCCOCCOCCOCCOCCNC(=O)CN(CC(=O)O)C(=O)CCCCN[C@H]1CCN(c2nc3cc([C@@H]4CCCCN4C(=O)c4cc(Cl)ccc4NS(C)(=O)=O)nn3cc2C)C1` [Int-25], 92 nM.

Regarding `C#CCOCCOCCOCCOCCOCCOCCOCCOCCNC(=O)CN(CC(=O)NCCOCCOCCOCCOCCOCCOCCOCCOCCOCCOCCOCCOC)C(=O)CCCCN[C@H]1CCN(c2nc3cc(C4CCCCN4C(=O)c4cc(Cl)ccc4NS(C)(=O)=O)nn3cc2C)C1` (stereo partly drawn) [Int-26], the EC50 with RSV Long strain (setting [4]) was 170 nM. As for `C#CCOCCOCCOCCOCCC(=O)N(CC(=O)NCCOCCOCCOCCOCCOCCOCCOCCOCCOCCOCCOCCOC)CC(=O)NCCn1cc(COCCOCCOCCOCCOCCOCCOCCCCN[C@H]2CCN(c3nc4cc([C@@H]5CCCCN5C(=O)c5cc(Cl)ccc5NS(C)(=O)=O)nn4cc3C)C2)nn1` [Int-27], in the series with RSV Long strain (setting [4]), the EC50 is 200 nM. With `C#CCOCCOCCOCCOCCC(=O)NCCCCn1c(CN2C(=O)C3(CCN(C(=O)OC(C)C)CC3)c3ccncc32)nc2cc(Cl)ccc21` [Int-34], the EC50 with RSV Long strain (setting [4]) stood at 0.13 nM. In the case of `C#CCOCCOCCOCCOCCC(=O)NCCCCn1c(CN2C(=O)C3(CCN(C(=O)OC(C)(C)C)CC3)c3ccncc32)nc2cc(Cl)ccc21` [Int-35], the figures for the EC50 in the series on RSV A2 strain (setting [6]) and in the series with RSV Long strain (setting [4]) were 0.74 nM and 0.34 nM, respectively. Turning to `C#CCOCCOCCOCCOCCn1c(CN2C(=O)C3(CCN(C(=O)OC(C)(C)C)CC3)c3ccncc32)nc2cc(Cl)ccc21` [Int-41], the EC50 in the series with RSV A2 strain (setting [6]) was determined as 15 nM; in the series on RSV B1 strain, 3.6 nM; with RSV Long strain (setting [4]) it was 14 nM. Regarding `NC(=O)c1ncn([C@@H]2O[C@H](CO)[C@@H](O)[C@H]2O)n1` [Ribavirin, reference compound], the CC50 at 4 days in series [2] worked out at 174000 nM. Moreover, the EC50 in series [1] (setting [5]) was determined as 25800 nM. `Cc1nnnn1N=Cc1ccc(O)c(C(c2ccc(O)cc2)c2cc(C=Nn3nnnc3C)ccc2O)c1` (stereo not drawn) [VP14637, MDT 637, reference compound]: the EC50 with RSV Long strain (setting [4]) was found to be 0.09 nM.

On to Palivizumab, for which the EC50 was 21 nM in the series on RSV A2 strain and 17 nM in the series on RSV Long strain (MOI 0.002, HEp-2 cells, day 6). For the same compound, the “effective at reducing hospitalization rates” value in the series with RSV is recorded as 60%.
